In patent US7557268B1, “Promoter for expression of a gene and response to infection or wounding” (priority 1999, dated 2009):
Read-outs that look alike come from different tables or passages of the source.

Key:
[1] = tested on: sugar beet promoter (gus reporter) in transgenic rape lines AG5947-t38, AG5947-t48; assay: Induction of the promoter in leaf disks of transgenic rape by salicylic acid and PMG-elicitor; assay type: cell-based; conditions: SA 0.5 mM, PMG-Elicitor 25 μg/ml
Excerpt: In order to examine the effect of salicylic acid and a purified PMG-elicitor from the cell wall of Phytophthora sojae (Valent, 1978) on the promoter activity, leaf disks with a diameter of 14 mm were stamped out of the leaves of greenhouse plants with the aid of a cork punch. The use of leaf disks facilitates the uptake of the salicylic acid or as the case may be the elicitor along the wound edge into the leaf tissue. Respectively 10 leaf disks from leaves of the transformed AG5947-t38 and […] were incubated in 90 mm sized petri dishes in salicylic acid containing medium (LS-medium without sucrose, 5 mM MES pH 7.0, 0.5 mM SA), in PMG-elicitor containing medium (LS-medium without sucrose, 5 mM MES pH 7.0, 25 μg elicitor/ml) or in control medium (LS-medium without sucrose, 5 mM MES pH 7.0) for 16 hours at 24° C. The activity of a promoter is described as in Jefferson (1987) measured by a quantitative determination of the GUS-activity.

[2] = tested on: sugar beet promoter (pAG5947-trans, gus reporter) in transgenic tobacco PR1-52; assay: Promoter activity in leaf disks of transgenic tobacco PR1-52 with increasing plant age; assay type: cell-based, Nicotianum tabacum cv. SR1; conditions: for Separated + SA Specific GUS-Activity: leaf disks, 0.5 mM SA, 16 hours; for SA-Induction: vs fresh harvested control leaves
Protocol: […] SR1. The produced tobacco transformates are given identification PR1-52, PR1-54 and PR1-56. The transformate PR1-52 is multiplied and placed in a greenhouse. After the plant has achieved a height of approximately 20 cm, the activatability of the sugar beet promoter is analyzed depending upon the plant age. For this, 6 leaves of different ages on the plant were selected. The oldest, lowest leaf is given reference number 1 and the youngest, highest leaf is given the reference number 6. From the leaf half of one of each leaf there is stamped out, with the aid of a 14 mm cork punch, respectively 15 equally sized leaf disks. Respectively 5 leaf disks are incubated in 90 mm sized petri dishes in salicylic acid containing medium (LS-Medium without Sucrose, 5 mM MES pH 7.0, 0.5 mM SA), in PMG-elicitor containing medium (LS-Medium without Sucrose, 5 mM MES pH 7.0, 1 unit elicitor/ml) or in control medium (LS-Medium without Sucrose, 5 mM MES pH 7.0) for 16 hours at 24° C. On the next day, from each treated leaf half again 5 disks were stamped out for control purposes. The activity of the promoter in these disks as well as the disks incubated over night were measured according to Jefferson (1987) by a quantitative determination of the GUS-activity. After 16 days the corresponding test is repeated with the still intact leaf halves of the leaves 1-6. The tobacco plant is in the meantime grown and approximately 50-60 cm high. […] The promoter activity increases with increasing age of the transgenic plants. The wounding or as the case may be the elicitation or as the case may be salicylic acid application leads, in the reporter gene plant with high plant age, in all examined leaves to a higher reporter gene activity and therewith promoter activity. The plant age has however no influence on the relative induction of the promoter by wounding, elicitation or salicylic acid application.

[3] = tested on: pAG5947-trans promoter (gus reporter) in PR1-52, PR1-54, PR1-56; assay: Promoter activity of pAG5947-trans in leaf disks of transgenic tobacco; assay type: cell-based; conditions: for SA-Induction: vs fresh harvested control leaves
[4] = tested on: pAG516 promoter deletion (gus reporter) in PR4-19, PR4-21, PR4-22; assay: Promoter activity of deletion construct pAG516 in leaf disks of transgenic tobacco; assay type: cell-based; conditions: for Separated + SA Specific GUS Activity: leaf disks; for SA-Induction: vs fresh harvested control leaves
[5] = tested on: pAG2339 promoter deletion (gus reporter) in PR8-2, PR8-3, PR8-12; assay type: cell-based, tobacco; conditions: leaf disks, SA
[6] = tested on: SR1 non-transgenic starting line; assay: GUS activity in leaf disks of the non-transgenic tobacco starting line; assay type: cell-based
[7] = tested on: promoter activity (transcript amount) in leaves of sugar beets; assay: Activation of the promoter in sugar beet leaf disks by salicylic acid, RNA-blot with phosphoimager; assay type: cell-based; conditions: for transcript amount formed by the promoter activity: sugar beet leaf disks, 2.0 mM Salicyclic Acid
Protocol: In order to investigate the reaction of the promoter in sugar beet leaves to abiotic triggers such as wounds or, as the case may be, on the effect of resistance inductors such as salicylic acid, leaf disks (1 cm diameter) were punched out of 12 week old sugar beets with the aid of a cork stamp. Respectively 100 leaf disks were incubated in control medium (LS-Medium without Sucrose, 5 mM MES pH 7.0) or in salicylic acid containing medium (LS-Medium without Sucrose, 5 mM MES pH 7.0, 2.0 mM SA) for 16 hours at 24° C. Total cell RNA was isolated and an RNA-blot analysis was carried out as described above. The intensity of the hybridization as signal on the RNA-blot was quantified with the aid of a Phosphoimager. The promoter activity of the disks in the control set is not constant over the experiment (Table 8). Based on the 0 hour value, the promoter activity in the control set falls slightly after 3 hours, only to then increase over 6 hours and 11 hours until the 24 hour value. After 24 hours the transcript amount in the control set is approximately 3-fold higher than in the beginning of the experiment (0 h). This rise in the promoter activity is to be traced back to the wounding of the leaf tissue during the stamping out of the leaf disks. […] In the salicylic acid containing medium there is likewise a rise in the transcript amount depending upon the time (Table 8). […] Thus the transcript amount after 24 hours is approximately the 8.5-fold of the 0 h value. The cause of the higher activity of the promoter in the salicylic acid containing medium is the inducibility of the promoter by salicylic acid.

O=C(O)c1ccccc1O [SA, salicylic acid]
AG5947-t38 Specific GUS-Activities ([1]; AG5947-t38 leaf disks, 16 hours at 24° C.): 485.3 pMol Mu × min^−1 × mg^−1
AG5947-t38 Induction ([1]; AG5947-t38 leaf disks, vs control medium): 19.8
AG5947-t48 Specific GUS-Activity ([1]; AG5947-t48 leaf disks, 16 hours at 24° C.): 17.2 pMol Mu × min^−1 × mg^−1
AG5947-t48 Induction ([1]; AG5947-t48 leaf disks, vs control medium): 9.2
Separated + SA Specific GUS-Activity ([2]; PR1-52, Leaf 1, t = 0 d): 314.92 pMol Mu × min^−1 × mg^−1
SA-Induction ([2]; PR1-52, Leaf 1, t = 0 d): 5.3
Separated + SA Specific GUS-Activity ([2]; PR1-52, Leaf 1, t = 16 d): 861.82 pMol Mu × min^−1 × mg^−1
SA-Induction ([2]; PR1-52, Leaf 1, t = 16 d): 30.5
Separated + SA Specific GUS-Activity ([2]; PR1-52, Leaf 2, t = 0 d): 205.53 pMol Mu × min^−1 × mg^−1
SA-Induction ([2]; PR1-52, Leaf 2, t = 0 d): 13.6
Separated + SA Specific GUS-Activity ([2]; PR1-52, Leaf 2, t = 16 d): 2358.18 pMol Mu × min^−1 × mg^−1
SA-Induction ([2]; PR1-52, Leaf 2, t = 16 d): 30.7
Separated + SA Specific GUS-Activity ([2]; PR1-52, Leaf 3, t = 0 d): 225.07 pMol Mu × min^−1 × mg^−1
SA-Induction ([2]; PR1-52, Leaf 3, t = 0 d): 21.7
Separated + SA Specific GUS-Activity ([2]; PR1-52, Leaf 3, t = 16 d): 555.62 pMol Mu × min^−1 × mg^−1
SA-Induction ([2]; PR1-52, Leaf 3, t = 16 d): 8.8
Separated + SA Specific GUS-Activity ([2]; PR1-52, Leaf 4, t = 0 d): 117.97 pMol Mu × min^−1 × mg^−1
SA-Induction ([2]; PR1-52, Leaf 4, t = 0 d): 25.7
Separated + SA Specific GUS-Activity ([2]; PR1-52, Leaf 4, t = 16 d): 1561.3 pMol Mu × min^−1 × mg^−1
SA-Induction ([2]; PR1-52, Leaf 4, t = 16 d): 44.5
Separated + SA Specific GUS-Activity ([2]; PR1-52, Leaf 5, t = 0 d): 140.37 pMol Mu × min^−1 × mg^−1
SA-Induction ([2]; PR1-52, Leaf 5, t = 0 d): 29.4
Separated + SA Specific GUS-Activity ([2]; PR1-52, Leaf 5, t = 16 d): 1220.71 pMol Mu × min^−1 × mg^−1
SA-Induction ([2]; PR1-52, Leaf 5, t = 16 d): 9.0
Separated + SA Specific GUS-Activity ([2]; PR1-52, Leaf 6, t = 0 d): 106.35 pMol Mu × min^−1 × mg^−1
SA-Induction ([2]; PR1-52, Leaf 6, t = 0 d): 319.4
Separated + SA Specific GUS-Activity ([2]; PR1-52, Leaf 6, t = 16 d): 1003.47 pMol Mu × min^−1 × mg^−1
SA-Induction ([2]; PR1-52, Leaf 6, t = 16 d): 47.0
Separated + SA Specific GUS Activity ([3]; PR1-52 (pAG5947-trans), leaf disks): 218.93 pMol Mu × min^−1 × mg^−1
SA-Induction ([3]; PR1-52 (pAG5947-trans)): 14.5
Separated + SA Specific GUS Activity ([3]; PR1-54 (pAG5947-trans), leaf disks): 167.83 pMol Mu × min^−1 × mg^−1
SA-Induction ([3]; PR1-54 (pAG5947-trans)): 8.0
Separated + SA Specific GUS Activity ([3]; PR1-56 (pAG5947-trans), leaf disks): 661.19 pMol Mu × min^−1 × mg^−1
SA-Induction ([3]; PR1-56 (pAG5947-trans)): 8.3
change of reporter gene / promoter activity (in words) ([3]; lines PR1-52, PR1-54 and PR1-56 transformed with pAG5947-trans, leaf disks): significant induction
Separated + SA Specific GUS Activity ([4]; PR4-19 (pAG516)): 16.6 pMol Mu × min^−1 × mg^−1
SA-Induction ([4]; PR4-19 (pAG516)): 2.3
Separated + SA Specific GUS Activity ([4]; PR4-21 (pAG516)): 21.3 pMol Mu × min^−1 × mg^−1
SA-Induction ([4]; PR4-21 (pAG516)): 0.6
Separated + SA Specific GUS Activity ([4]; PR4-22 (pAG516)): 19.3 pMol Mu × min^−1 × mg^−1
SA-Induction ([4]; PR4-22 (pAG516)): 3.6
SA-inducibility (in words) ([4]; plants transformed with the construct pAG516, leaf disks): small SA-inducibility
Separated + SA Specific GUS Activity ([5]; PR8-2 (pAG2339)): 1.7 pMol Mu × min^−1 × mg^−1
Separated + SA Specific GUS Activity ([5]; PR8-3 (pAG2339)): 0 pMol Mu × min^−1 × mg^−1
Separated + SA Specific GUS Activity ([5]; PR8-12 (pAG2339)): 0 pMol Mu × min^−1 × mg^−1
Separated + SA Specific GUS Activity ([6]; leaf disks, SA): 6.2 pMol Mu × min^−1 × mg^−1
SA-Induction ([6]; vs fresh harvested control leaves): 0.8
transcript amount after 24 hours relative to the 0 h value ([7]; sugar beet leaf disks in salicylic acid containing medium (2.0 mM SA)): ~8.5 fold
transcript amount formed by the promoter activity ([7]; Time 0 h): 81 PSL (photo stimulated luminescence)-units
transcript amount formed by the promoter activity ([7]; Time 3 h): 107 PSL (photo stimulated luminescence)-units
transcript amount formed by the promoter activity ([7]; Time 6 h): 284 PSL (photo stimulated luminescence)-units
transcript amount formed by the promoter activity ([7]; Time 11 h): 513 PSL (photo stimulated luminescence)-units
transcript amount formed by the promoter activity ([7]; Time 24 h): 688 PSL (photo stimulated luminescence)-units
